How the values were obtained:
[1] = system: primary CLL cells; experiment: Cytotoxicity, TMRE flow cytometry viability, primary CLL cells (Example II.1); type: cell-based; conditions: Homo sapiens, CLL cell, 6 hours, TMRE positive cells normalized to control, ratio to PF670462, <1 = higher cytotoxicity than PF670462, read-out: Viability of cells, Compound of formula I (100 μM), relative to PF670462 (100 μM), CLL primary cells
[2] = system: Maver-1 cells (mantle cell lymphoma); experiment: Cytotoxicity, TMRE flow cytometry viability, Maver-1 cells (Example II.1); type: cell-based; conditions: Homo sapiens, Maver1, 24 hours, TMRE positive cells normalized to control, ratio to PF670462, <1 = higher cytotoxicity than PF670462, read-out: Viability of cells, Compound of formula I (100 μM), relative to PF670462 (100 μM), Maver-1 cells (mantle cell lymphoma)
[3] = system: A375; experiment: Cytotoxicity on panel of cell lines, TMRE viability (Example II.2); type: cell-based; conditions: Homo sapiens, A-375, 24 hours, mean, control = 1, read-out: cell viability relative to control, A375 (melanoma)
Experimental: (§1) The leukemia and lymphoma-derived cell lines [MEC-1 cell line (derived from chronic lymphocytic leukemia—CLL), Nalm-16 (acute lymphocytic leukemia—ALL), K562 (chronic myeloid leukemia—CML), HL-60 (acute myeloid leukemia—AML), Maver-1 and Mino (mantle cell lymphoma—MCL), BL-41 (Burkitt lymphoma—BL), WSU-NHL (follicular lymphoma—FL), SUDHL (diffuse large B-cell lymphoma—DLBCL)], primary CLL cells and nonmalignant control primary cells were cultured in suspension in flasks under the following conditions: RPMI 1640 medium (Hyclone) supplemented with 10% fetal bovine serum (FBS, Gibco) and 1% penicillin/streptomycin (Life Technologies), 37° C., 5% CO2 and 95% relative humidity, with optimal culture cell density 5×10^6 cells/mL in case of primary cells and 0.5-1×10^6 cells/mL in case of cell lines. The adherent cell lines [A375 (derived from malignant melanoma), MDA-MB-231 and MCF-7 (breast cancer), MIA-PA-CA and PANC1 (pancreatic cancer), PC3 (prostate cancer), OVCAR4 (ovarian cancer) and HEPG2 (hepatocellular carcinoma)] were cultured on plates under the same conditions using RPMI1640 or DMEM medium (Gibco) according to instructions provided by the distributor (DSMZ/ATCC).
(§2) The tested cell lines were incubated with inhibitors at 30 μM concentration or corresponding amount of solvent (DMSO, Sigma Aldrich) in standard culture conditions, seeded as 10^5 cells/500 μl per well in a 24-well plate. Experiments were performed in technical duplicates and 2-3 biological repetitions per cell line. Viability of cells was assessed after 24 hours.
(§3) Relative values are presented as a mean value, showing ratio to the effect of control. Relative value <1=lower viability than control condition.

[4] = system: BL-41; experiment: as above; type: cell-based; conditions: Homo sapiens, 24 hours, mean, control = 1, read-out: cell viability relative to control, BL-41 (BL)
Experimental: as §1, §2, §3

[5] = system: HEPG2; experiment: as above; type: cell-based; conditions: Homo sapiens, 24 hours, mean, control = 1, read-out: cell viability relative to control, HEPG2 (hepatocellular carcinoma)
Experimental: as §1, §2, §3

[6] = system: HL60; experiment: as above; type: cell-based; conditions: Homo sapiens, HL-60, 24 hours, mean, control = 1, read-out: cell viability relative to control, HL60 (AML)
Experimental: as §1, §2, §3

[7] = system: K562; experiment: as above; type: cell-based; conditions: Homo sapiens, 24 hours, mean, control = 1, read-out: cell viability relative to control, K562 (CML)
Experimental: as §1, §2, §3

[8] = system: MCF-7; experiment: as above; type: cell-based; conditions: Homo sapiens, MCF7, 24 hours, mean, control = 1, read-out: cell viability relative to control, MCF-7 (breast cancer)
Experimental: as §1, §2, §3

[9] = system: MDA-MB-231; experiment: as above; type: cell-based; conditions: Homo sapiens, 24 hours, mean, control = 1, read-out: cell viability relative to control, MDA-MB-231 (breast cancer)
Experimental: as §1, §2, §3

[10] = system: MEC-1; experiment: as above; type: cell-based; conditions: Homo sapiens, MEC1, 24 hours, mean, control = 1, read-out: cell viability relative to control, MEC-1 (CLL)
Experimental: as §1, §2, §3

[11] = system: MIA-PA-CA; experiment: as above; type: cell-based; conditions: Homo sapiens, MIA PaCa-2, 24 hours, mean, control = 1, read-out: cell viability relative to control, MIA-PA-CA (pancreatic cancer)
Experimental: as §1, §2, §3

[12] = system: Maver1; experiment: as above; type: cell-based; conditions: Homo sapiens, 24 hours, mean, control = 1, read-out: cell viability relative to control, Maver1 (MCL)
Experimental: as §1, §2, §3

[13] = system: Mino; experiment: as above; type: cell-based; conditions: Homo sapiens, 24 hours, mean, control = 1, read-out: cell viability relative to control, Mino (MCL)
Experimental: as §1, §2, §3

[14] = system: Nalm16; experiment: as above; type: cell-based; conditions: 24 hours, mean, control = 1, read-out: cell viability relative to control, Nalm16 (ALL)
Experimental: as §1, §2, §3

[15] = system: OVCAR4; experiment: as above; type: cell-based; conditions: Homo sapiens, OVCAR-4, 24 hours, mean, control = 1, read-out: cell viability relative to control, OVCAR4 (ovarian cancer)
Experimental: as §1, §2, §3

[16] = system: PANC1; experiment: as above; type: cell-based; conditions: Homo sapiens, PANC-1, 24 hours, mean, control = 1, read-out: cell viability relative to control, PANC1 (pancreatic cancer)
Experimental: as §1, §2, §3

[17] = system: PC3; experiment: as above; type: cell-based; conditions: Homo sapiens, PC-3, 24 hours, mean, control = 1, read-out: cell viability relative to control, PC3 (prostate cancer)
Experimental: as §1, §2, §3

[18] = system: SUDHL; experiment: as above; type: cell-based; conditions: 24 hours, mean, control = 1, read-out: cell viability relative to control, SUDHL (DLBCL)
Experimental: as §1, §2, §3

[19] = system: WSU-NHL; experiment: as above; type: cell-based; conditions: Homo sapiens, 24 hours, mean, control = 1, read-out: cell viability relative to control, WSU-NHL (FL)
Experimental: as §1, §2, §3

[20] = system: primary CLL; experiment: as above; type: cell-based; conditions: Homo sapiens, 24 hours, mean, control = 1, read-out: cell viability relative to control, primary CLL
Experimental: as §1, §2, §3

[21] = Specificity of cytotoxic activity, TMRE viability, primary nonmalignant control cells (Example II.4); type: cell-based; conditions: human, N = 4, read-out: Viability - mean % of control, Primary healthy cells
[22] = system: primary CLL cells; conditions: human, 6 h, 30 µM
[23] = system: primary CLL cells; experiment: Specificity of cytotoxic activity, TMRE viability, primary CLL cells (Example II.4)

Nc1nccc(-c2c(-c3ccc(F)cc3)ncn2C2CCCCC2)n1 [PF670462, reference compound] gave a viability at 100 µM [1] of 100%, a viability at 100 µM [2] of 100% and a viability at 30 µM [3] of 94%. The viability at 30 µM [4] was 82%, the viability at 30 µM [5] was 78% and the viability at 30 µM [6] was 98%. For the same compound, the viability at 30 µM [7] was 97%, the viability at 30 µM [8] was 55% and the viability at 30 µM [9] was 99%. The viability at 30 µM [10] was 92%, the viability at 30 µM [11] was 104% and the viability at 30 µM [12] was 85%. The viability at 30 µM [13] was 84%, the viability at 30 µM [14] was 94% and the viability at 30 µM [15] was 95%. It also gave a viability at 30 µM [16] of 93%, a viability at 30 µM [17] of 115% and a viability at 30 µM [18] of 93%. It also gave a viability at 30 µM [19] of 110%, a viability at 30 µM [20] of 103% and a viability at 6 h, 30 µM [21] of 95.5%. For the same compound, the “Viability - mean % of control, Primary CLL” value [22] was 98.3% (N = 8), the “induction of apoptosis in primary CLL cells or nonmalignant control (healthy) cells” value ([23]; 30 μM, 6 hours) was “not able to induce apoptosis” and the “dose-dependent cytotoxic effect / apoptosis of primary CLL cells (FIG. 1)” value ([23]; 6 h, indicated doses of inhibitors) was “lacks this effect”.

From US11498920B2, “4-(1H-imidazol-5-yl)-1H-pyrrolo[2, 3-b] pyridines for use in the treatment of leukaemias, lymphomas and solid tumors” (MASARYKOVA UNIVERZITA, priority 2018, dated 2022)
